Each structure is given as a SMILES string.

Common to all, as to type: biochemical
The target in assay [1] is PKR R510Q (Homo sapiens, UniProt P30613, R510Q). Kind of assay: PKR mutant assay, PKR R510Q AC50. The settings on record: mutant PKR R510Q enzyme. As to the method: (§1) • PKR or PKR mutant enzyme solution was diluted in assay buffer. • 2 μL of test compound was added into wells first, and then 180 μL reaction mix was added. • Reactions mixture with test compound was assembled except for ADP, and plates were stored for 60 minutes at room temperature. • 20 uL ADP was added to start reaction at room temperature and reaction progress was measured as changes in absorbance at 340 nm wavelength at room temperature.
Test Compound Preparation: • Test compound stock was made at 100x concentration in 100% DMSO (10 mM) • 1 to 3 dilutions were made for 11 points (i.e. 50 μl of first concentration added to 100 μl 100% DMSO to yield 3.33 mM, 50 μl of this added to 100 μl DMSO to yield 1.11 mM, and so forth) • 1 to 100 dilution into assay (2 μl in 200 μl) yielded starting concentration of 100 μM, decreasing 3 fold for 11 points • Assay Buffer: 100 mM KCl, 50 mM Tris 7.5, 5 mM MgCl2, 1 mM DTT, 0.03% BSA • Reaction Mixture: PKR mutant enzyme: 80-400 ng/well; ADP: 0.22-1.65 mM; PEP: 0.1-0.5 mM; NADH:180 uM; LDH: 0.5 units (Sigma#59023); DTT: 1 mM; BSA: 0.03%. […]

For assay [2], the target named is PKR R532W (Homo sapiens, UniProt P30613, R532W). Description: PKR mutant assay, PKR R532W AC50. The settings on record: mutant PKR R532W enzyme. On the procedure:
as §1
(§2) Test Compound Preparation: • Test compound stock was made at 100x concentration in 100% DMSO (10 mM) • 1 to 3 dilutions were made for 11 points (i.e. 50 μl of first concentration added to 100 μl 100% DMSO to yield 3.33 mM, 50 μl of this added to 100 μl DMSO to yield 1.11 mM, and so forth) • 1 to 100 dilution into assay (2 μl in 200 μl) yielded starting concentration of 100 μM, decreasing 3 fold for 11 points • Assay Buffer: 100 mM KCl, 50 mM Tris 7.5, 5 mM MgCl2, 1 mM DTT, 0.03% BSA • Reaction Mixture: PKR mutant enzyme: 80-400 ng/well; ADP: 0.22-1.65 mM; PEP: 0.1-0.5 mM; NADH:180 uM; LDH: 0.5 units (Sigma#59023); DTT: 1 mM; BSA: 0.03%.
(§3) A compound described herein was diluted with DMSO and tested at 1 μM concentration. The enzyme was diluted in 1× Buffer: (100 mM KCl, 50 mM Tris 7.5, 5 mM MgCl2, 1 mM DTT, 0.03% BSA). 2 μL of compound solution was first added into wells, and then 180 μL of enzyme solution was added. Assays were assembled except for ADP, and plates were stored for 60 minutes at RT. 20 μL ADP was added to start the assay and assay output was evaluated using OD340 at SpectraMax. The assay was run at room temperature. • Final concentration: PKR R532W (100 ng/well), Tris pH 7.5 (50 mM), KCl (100 mM), MgCl2 (5 mM), ADP (0.36 mM), PEP (0.1 mM), NADH (180 μM), LDH (0.5 units, Sigma 59023), DTT (1 mM) and BSA (0.03%).

The target in assay [3] is PKR WT (Homo sapiens, UniProt P30613). Kind of assay: PKR WT enzymatic assay AC50. The settings on record: wild type PKR. As to the method: as §1, §2
as §3, with “wt” for “R532W”, “(0.48” for “(0.36”, “(0.15” for “(0.1”

PKR R532W, sequence (P30613 whole entry R532W): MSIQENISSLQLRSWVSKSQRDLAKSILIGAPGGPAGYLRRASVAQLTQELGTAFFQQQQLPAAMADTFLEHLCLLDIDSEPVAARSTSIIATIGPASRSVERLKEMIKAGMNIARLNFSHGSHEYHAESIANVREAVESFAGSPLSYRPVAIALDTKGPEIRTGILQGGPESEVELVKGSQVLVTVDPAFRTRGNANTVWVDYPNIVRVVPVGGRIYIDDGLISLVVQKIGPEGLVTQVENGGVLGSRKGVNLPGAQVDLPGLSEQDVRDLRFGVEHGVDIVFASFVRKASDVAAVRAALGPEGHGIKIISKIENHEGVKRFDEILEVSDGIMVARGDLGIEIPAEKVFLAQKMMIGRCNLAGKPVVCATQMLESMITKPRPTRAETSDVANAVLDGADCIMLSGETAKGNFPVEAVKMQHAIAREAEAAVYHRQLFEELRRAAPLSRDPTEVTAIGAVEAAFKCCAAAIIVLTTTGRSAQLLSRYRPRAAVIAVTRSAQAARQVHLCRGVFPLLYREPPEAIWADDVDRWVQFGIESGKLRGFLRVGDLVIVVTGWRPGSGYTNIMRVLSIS
PKR WT, sequence (P30613 whole entry): as the sequence (P30613 whole entry R532W) above, with W532R counted along it
PKR R510Q, sequence (P30613 whole entry R510Q): as the sequence (P30613 whole entry R532W) above, with R510Q, W532R counted along it

Consider `O=C(c1ccc(NS(=O)(=O)c2cccc3cccnc23)c(F)c1)N1CC(O)(Cc2ccccc2)C1` [Compound 46, N-(4-(3-benzyl-3-hydroxyazetidine-1-carbonyl)-2-fluorophenyl)quinoline-8-sulfonamide], for which the AC50 (in general, the midpoint of the concentration-response curve, whichever way the signal moves) in assay [1] lay in the range of 1.01 to 10 µM; in assay [2], 0.101 to 1 µM; in assay [3], 0.101 to 1 µM.

For `Cc1cccc(CC2(O)CN(C(=O)c3ccc(NS(=O)(=O)c4cccc5cccnc45)cc3)C2)n1` [Compound 56, N-(4-(3-hydroxy-3-((6-methylpyridin-2-yl)methyl)azetidine-1-carbonyl)phenyl)quinoline-8-sulfonamide], the AC50 in assay [1] was over 10 µM; in assay [2] it was 0.101 to 1 µM; in assay [3] it was 1.01 to 10 µM.

For `O=C(c1ccc(NS(=O)(=O)c2cccc3nonc23)cc1)N1CC(O)(Cc2ccccc2)C1` [Compound 69], the AC50 in assay [1], in assay [2] and in assay [3] was over 10 µM in each case.

`O=C(c1ccc(NS(=O)(=O)c2cccc3cccnc23)cc1)N1CC(O)(CCO)C1` [Compound 38, N-(4-(3-hydroxy-3-(2-hydroxyethyl)azetidine-1-carbonyl)phenyl)quinoline-8-sulfonamide]: the AC50 was over 10 µM in assay [1], over 10 µM in assay [2] and 1.01 to 10 µM in assay [3].

Regarding `O=C(c1ccc(NS(=O)(=O)c2cccc3cccnc23)cc1F)N1CC(O)(Cc2ccccc2)C1` [Compound 45, N-(4-(3-benzyl-3-hydroxyazetidine-1-carbonyl)-3-fluorophenyl)quinoline-8-sulfonamide], the half-maximal activity concentration (AC50) in assay [1] lay within 1.01 to 10 µM; in assay [2], 0.101 to 1 µM; in assay [3] it was 0.101 to 1 µM.

On to `O=C(c1ccc(NS(=O)(=O)c2cccc3cccnc23)cc1)N1CC(O)(C2CC2)C1` [Compound 33, N-(4-(3-cyclopropyl-3-hydroxyazetidine-1-carbonyl)phenyl)quinoline-8-sulfonamide], for which the half-maximal activity concentration (AC50) in assay [1] is over 10 µM; in assay [2], 1.01 to 10 µM; in assay [3], 1.01 to 10 µM.

For `O=C(c1ccc(NS(=O)(=O)c2cccc3cccnc23)cc1)N1CC(O)(CC2CC2)C1` [Compound 37, N-(4-(3-(cyclopropylmethyl)-3-hydroxyazetidine-1-carbonyl)phenyl)quinoline-8-sulfonamide], the AC50 in assay [1] was over 10 µM; in assay [2], 0.101 to 1 µM; in assay [3], 0.101 to 1 µM.

On to `Cn1c(=O)oc2cc(S(=O)(=O)Nc3ccc(C(=O)N4CC(O)(Cc5ccccc5)C4)cc3)ccc21` [Compound 70], for which the AC50 in assay [1], in assay [2] and in assay [3] was over 10 µM in each case.

In the case of `CCC1(O)CN(C(=O)c2ccc(NS(=O)(=O)c3cccc4cccnc34)cc2)C1` [Compound 34, N-(4-(3-ethyl-3-hydroxyazetidine-1-carbonyl)phenyl)quinoline-8-sulfonamide], the AC50 in assay [1] was over 10 µM; in assay [2] it was 1.01 to 10 µM; in assay [3] it was 1.01 to 10 µM.

On to `O=C(c1ccc(NS(=O)(=O)c2cccc3ncccc23)cc1)N1CC(O)(c2cccc(C(F)(F)F)c2)C1` [Compound 44, N-(4-(3-hydroxy-3-(3-(trifluoromethyl)phenyl)azetidine-1-carbonyl)phenyl)quinoline-5-sulfonamide], for which the AC50 in assay [1], in assay [2] and in assay [3] was 1.01 to 10 µM throughout.

Regarding `O=C(c1ccc(NS(=O)(=O)c2cccc(Cl)c2Cl)cc1)N1CC(O)(Cc2ccccc2)C1` [Compound 52, N-(4-(3-benzyl-3-hydroxyazetidine-1-carbonyl)phenyl)-2,3-dichlorobenzenesulfonamide], the concentration at half-maximal activity (AC50) was over 10 µM in assay [1], 1.01 to 10 µM in assay [2] and 1.01 to 10 µM in assay [3].

Consider `CC(C)C1(O)CN(C(=O)c2ccc(NS(=O)(=O)c3cccc4cccnc34)cc2)C1` [Compound 32, N-(4-(3-hydroxy-3-isopropylazetidine-1-carbonyl)phenyl)quinoline-8-sulfonamide], for which the AC50 was over 10 µM in assay [1], 1.01 to 10 µM in assay [2] and 1.01 to 10 µM in assay [3].

For the origin of these results see US9458132B2, “Therapeutic compounds and compositions and their use as PKM2 modulators” (AGIOS PHARMACEUTICALS, INC., priority 2012, dated 2016).
